Measurements published in patent publication US8952024B2, “Herbicidal pyrimidone derivatives” (E I du Pont de Nemours and Company, priority 2009, dated 2015).

Legend:
Format in all cases: in vivo
[1] = test system: winter barley (Hordeum vulgare); assay: Test B postemergence plant response; settings: for Barley plant response rating (0 to 100 scale): 62 g ai/ha, 0 is no effect, 13 to 15 days
Method in brief: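 Plants grown in peat/vermiculite medium were sprayed postemergence at 2–18 cm height (1- to 4-leaf stage). After 13–15 days in the greenhouse, response was rated visually against untreated controls on a 0–100 scale (0 no effect, 100 complete control).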

[2] = test system: umbrella sedge (Cyperus difformis); assay: Test B flooded paddy test; settings: for Plant response rating, Flood, Sedge, Umbrella: 250 g ai/ha, flooded paddy test, visual rating on 0 to 100 scale (0 no effect, 100 complete control) after 13 to 15 days; for Plant response rating, Sedge, Umbrella: Flood (flooded paddy test), 13 to 15 days; for Sedge, Umbrella plant response rating: Flood, 31 g ai/ha, scale 0 to 100 (0 no effect, 100 complete control)
Method in brief: (§1)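 2-leaf seedlings; pots flooded 3 cm over soil at treatment; cpd dosed into floodwater, depth kept constant. Greenhouse 13–15 d. Visual rating vs untreated controls, 0 = no effect, 100 = complete control.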

[3] = test system: barnyardgrass (Echinochloa crus-galli); assay: Test B flooded paddy test; settings: for Plant response rating, Flood, Barnyardgrass: 250 g ai/ha, flooded paddy test, visual rating on 0 to 100 scale (0 no effect, 100 complete control) after 13 to 15 days; for Plant response rating, Barnyardgrass: Flood (flooded paddy test), 13 to 15 days; for Barnyardgrass plant response rating: Flood, 31 g ai/ha, scale 0 to 100 (0 no effect, 100 complete control)
Method in brief: as §1

rice (Oryza sativa) = assay: Test B flooded paddy test; settings: for Plant response rating, Flood, Rice: 250 g ai/ha, flooded paddy test, visual rating on 0 to 100 scale (0 no effect, 100 complete control) after 13 to 15 days; for Plant response rating, Rice: Flood (flooded paddy test), 13 to 15 days; for Rice plant response rating: Flood, 31 g ai/ha, scale 0 to 100 (0 no effect, 100 complete control)
Method in brief: as §1

[4] = test system: ducksalad (Heteranthera limosa); assay: Test B flooded paddy test; settings: for Plant response rating, Flood, Ducksalad: 250 g ai/ha, flooded paddy test, visual rating on 0 to 100 scale (0 no effect, 100 complete control) after 13 to 15 days; for Plant response rating, Ducksalad: Flood (flooded paddy test), 13 to 15 days; for Ducksalad plant response rating: Flood, 31 g ai/ha, scale 0 to 100 (0 no effect, 100 complete control)
Method in brief: as §1

[5] = test system: pigweed (Amaranthus retroflexus); assay: Test A pre-/postemergence plant response
Method in brief: (§2)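 Injury was scored visually after roughly ten days against untreated controls, 0 = no effect, 100 = complete control. Test chemicals in a surfactant-containing non-phytotoxic solvent were sprayed either onto soil preemergence or onto one- to two-leaf, 2–10 cm plants postemergence.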

[6] = test system: velvetleaf (Abutilon theophrasti); assay: Test A pre-/postemergence plant response
Method in brief: as §2

corn (Zea mays) = assay: Test A pre-/postemergence plant response
Method in brief: as §2

[7] = test system: morningglory (Ipomoea spp.); assay: Test A pre-/postemergence plant response
Method in brief: as §2

[8] = test system: large crabgrass (Digitaria sanguinalis); assay: Test A pre-/postemergence plant response
Method in brief: as §2

[9] = test system: barnyardgrass (Echinochloa crus-galli); assay: Test A pre-/postemergence plant response
Method in brief: as §2

[10] = test system: wheat (Triticum aestivum); assay: Test A pre-/postemergence plant response
Method in brief: as §2

[11] = test system: giant foxtail (Setaria faberii); assay: Test A pre-/postemergence plant response
Method in brief: as §2

[12] = postemergence, 100 is complete control
[13] = 62 g ai/ha, scale of 0 to 100 where 0 is no effect and 100 is complete control
[14] = Postemergence, 125 g ai/ha, 0 to 100 scale where 0 is no effect and 100 is complete control
[15] = Postemergence, 500 g ai/ha, 0 to 100 scale, 0 = no effect, 100 = complete control, approx. ten days
[16] = Preemergence, 125 g ai/ha, 0 to 100 scale, 0 = no effect, 100 = complete control
[17] = Preemergence, 500 g ai/ha, visual injury, 0 to 100 scale (0 no effect, 100 complete control), approx. ten days
[18] = 31 g ai/ha, postemergence, scale 0 to 100, 0 is no effect, 100 is complete control
[19] = Postemergence, 125 g ai/ha, visual rating after 13 to 15 days, scale 0 (no effect) to 100 (complete control)
[20] = Postemergence, 250 g ai/ha, scale 0 to 100 (0 no effect, 100 complete control)
[21] = 125 g ai/ha, scale 0 to 100, 0 is no effect, 100 is complete control

O=C1CCCC(O)=C1C(=O)c1cnc(-c2ccccc2)n(C2CCCC2)c1=O [Compound 131]
90: Plant response rating, Crabgrass, Large [8, 14] | Plant response rating, Crabgrass, Large [8, 15] | Plant response rating, Barnyardgrass [9, 14] | Plant response rating, Barnyardgrass [9, 15] | Plant response rating, Foxtail, Giant [11, 15]
100: Plant response rating, Pigweed [5, 14] | Plant response rating, Pigweed [5, 15] | Plant response rating, Pigweed [5, 16] | Plant response rating, Pigweed [5, 17] | Plant response rating, Velvetleaf [6, 14] | Plant response rating, Velvetleaf [6, 15] | Plant response rating, Velvetleaf [6, 17] | Plant response rating, Morningglory [7, 14] | Plant response rating, Morningglory [7, 15] | Plant response rating, Crabgrass, Large [8, 17] | Plant response rating, Barnyardgrass [9, 17]
80: Plant response rating, Velvetleaf [6, 16] | Plant response rating, Morningglory [7, 17] | Plant response rating, Crabgrass, Large [8, 16] | Plant response rating, Foxtail, Giant [11, 14] | Plant response rating, Foxtail, Giant [11, 17]
30: Plant response rating, Corn (corn (Zea mays); [15])
0: Plant response rating, Barley ([1]; 16 g ai/ha, Postemergence, 0 to 100 scale) | Barley plant response rating (0 to 100 scale) [1, 12] | Plant response rating, Barley ([1]; Postemergence, 31 g ai/ha, 0 to 100 scale (0 no effect, 100 complete control)) | Plant response rating, Barley ([1]; Postemergence, 125 g ai/ha, scale 0 to 100 (0 no effect, 100 complete control)) | Plant response rating, Corn (corn (Zea mays); [14]) | Plant response rating, Corn (corn (Zea mays); [16]) | Plant response rating, Corn (corn (Zea mays); [17]) | Plant response rating, Wheat [10, 14] | Plant response rating, Wheat [10, 15] | Plant response rating, Wheat [10, 16] | Plant response rating, Wheat [10, 17]
55: Plant response rating, Flood, Rice (rice (Oryza sativa))
85: Plant response rating, Flood, Sedge, Umbrella [2] | Plant response rating, Flood, Ducksalad [4]
40: Plant response rating, Ducksalad [4, 13]
60: Plant response rating, Foxtail, Giant [11, 16]
50: Plant response rating, Flood, Barnyardgrass [3] | Plant response rating, Barnyardgrass [9, 16]
25: Plant response rating, Rice (rice (Oryza sativa); [13])
20: Plant response rating, Sedge, Umbrella [2, 13] | Plant response rating, Barnyardgrass [3, 13]

O=C1CCCC(OC(=O)C2CC2)=C1C(=O)c1cnc(-c2ccccc2)n(-c2ccccc2)c1=O [Compound 88]
20: Plant response rating, Barnyardgrass [3, 13]
50: Plant response rating, Flood, Rice (rice (Oryza sativa)) | Plant response rating, Morningglory [7, 16]
40: Plant response rating, Barley [1, 19] | Plant response rating, Sedge, Umbrella [2, 21] | Plant response rating, Barnyardgrass [3, 21] | Plant response rating, Rice (rice (Oryza sativa); [21]) | Plant response rating, Ducksalad [4, 13]
90: Plant response rating, Morningglory [7, 14] | Plant response rating, Crabgrass, Large [8, 14] | Plant response rating, Crabgrass, Large [8, 15] | Plant response rating, Barnyardgrass [9, 15] | Plant response rating, Barnyardgrass [9, 17] | Plant response rating, Foxtail, Giant [11, 15]
10: Plant response rating, Barnyardgrass [9, 16] | Plant response rating, Wheat [10, 17]
30: Plant response rating, Barley [1, 18] | Barley plant response rating (0 to 100 scale) [1, 12] | Plant response rating, Sedge, Umbrella [2, 13] | Ducksalad plant response rating [4]
60: Plant response rating, Flood, Barnyardgrass [3] | Plant response rating, Corn (corn (Zea mays); [15]) | Plant response rating, Foxtail, Giant [11, 14]
100: Plant response rating, Pigweed [5, 14] | Plant response rating, Pigweed [5, 15] | Plant response rating, Velvetleaf [6, 14] | Plant response rating, Velvetleaf [6, 15] | Plant response rating, Velvetleaf [6, 17] | Plant response rating, Morningglory [7, 15] | Plant response rating, Foxtail, Giant [11, 17]
70: Plant response rating, Morningglory [7, 17]
75: Plant response rating, Ducksalad [4, 21]
80: Plant response rating, Barley [1, 20] | Plant response rating, Flood, Ducksalad [4] | Plant response rating, Velvetleaf [6, 16] | Plant response rating, Barnyardgrass [9, 14]
0: Sedge, Umbrella plant response rating [2] | Barnyardgrass plant response rating [3] | Plant response rating, Rice (rice (Oryza sativa); [13]) | Rice plant response rating (rice (Oryza sativa)) | Plant response rating, Corn (corn (Zea mays); [14]) | Plant response rating, Corn (corn (Zea mays); [16]) | Plant response rating, Corn (corn (Zea mays); [17]) | Plant response rating, Wheat [10, 14] | Plant response rating, Wheat [10, 15] | Plant response rating, Wheat [10, 16]
65: Plant response rating, Flood, Sedge, Umbrella [2]

CCCCn1c(-c2ccccc2)ncc(C(=O)C2=C(O)CCCC2=O)c1=O [Compound 86]
20: Sedge, Umbrella plant response rating [2] | Plant response rating, Rice (rice (Oryza sativa); [21]) | Plant response rating, Barnyardgrass [9, 16]
60: Plant response rating, Barley [1, 19] | Plant response rating, Flood, Barnyardgrass [3] | Plant response rating, Morningglory [7, 17]
90: Plant response rating, Morningglory [7, 14] | Plant response rating, Morningglory [7, 15] | Plant response rating, Crabgrass, Large [8, 14] | Plant response rating, Crabgrass, Large [8, 15] | Plant response rating, Barnyardgrass [9, 14] | Plant response rating, Barnyardgrass [9, 15] | Plant response rating, Foxtail, Giant [11, 15]
100: Plant response rating, Pigweed [5, 14] | Plant response rating, Pigweed [5, 15] | Plant response rating, Velvetleaf [6, 14] | Plant response rating, Velvetleaf [6, 15] | Plant response rating, Velvetleaf [6, 17] | Plant response rating, Barnyardgrass [9, 17] | Plant response rating, Foxtail, Giant [11, 17]
65: Plant response rating, Barley [1, 20] | Plant response rating, Flood, Ducksalad [4]
80: Plant response rating, Foxtail, Giant [11, 14]
55: Plant response rating, Ducksalad [4, 13] | Plant response rating, Ducksalad [4, 21]
0: Plant response rating, Rice (rice (Oryza sativa); [13]) | Rice plant response rating (rice (Oryza sativa)) | Ducksalad plant response rating [4] | Plant response rating, Corn (corn (Zea mays); [14]) | Plant response rating, Morningglory [7, 16] | Plant response rating, Wheat [10, 14]
30: Plant response rating, Barley [1, 18] | Plant response rating, Sedge, Umbrella [2, 13] | Barnyardgrass plant response rating [3]
40: Barley plant response rating (0 to 100 scale) [1, 12] | Plant response rating, Barnyardgrass [3, 13] | Plant response rating, Flood, Rice (rice (Oryza sativa))
70: Plant response rating, Sedge, Umbrella [2, 21]
85: Plant response rating, Flood, Sedge, Umbrella [2]
50: Plant response rating, Barnyardgrass [3, 21] | Plant response rating, Corn (corn (Zea mays); [15]) | Plant response rating, Wheat [10, 15]
